“Also recorded” adds a separate entry of the source.
How the values were obtained:
Sir2Tm wild type [1] = molecular target: T1, Sir2Tm wild type (Thermotoga maritima, UniProt Q9WYW0); format: biochemical; parameters: made in house; host or cells: E. coli
Procedure: (§1) The deacetylation activity was measured using the Fluor de Lys-SirT1 assay (Biomol), using a peptide containing amino acids 379-RHK-K(Ac)-382 of p53 as substrate. […] The reactions were carried out at 37° C. in a 50 μL reaction volume containing 50 mM Tris, pH 8, 50 mM NaCl and 400 μM fluorolabeled peptide (˜10 times KM). […] Reactions were done at least in triplicate. The data were fitted to the Michaelis-Menten equation using SigmaPlot to obtain the kinetic constants. […] The data were fitted to equation (1) using SigmaPlot (SYSTAT) to calculate the IC50 values:
(§2) vI=v0(1−(I/(IC50+I))) Equation (1)
(§3) where v0 is the initial rate of the uninhibited reaction and vI is the initial rate of the reaction at concentration I of inhibitor.

Sir2Tm-D101N mutant [2] = molecular target: T2, Sir2Tm-D101N mutant (Thermotoga maritima, UniProt Q9WYW0, D101N); experiment: biochemical; format: biochemical; parameters: made in house; host or cells: E. coli; conditions: for apparent kcat of cosubstrate-dependent deacetylation / Km / IC50: Sir2Tm-D101N mutant; for Km: 400 μM fluorolabeled peptide, read-out: apparent KM for cosubstrate; for IC50: fluorolabeled p53 peptide, 37° C.
T2 sequence (Q9WYW0 whole entry D101N): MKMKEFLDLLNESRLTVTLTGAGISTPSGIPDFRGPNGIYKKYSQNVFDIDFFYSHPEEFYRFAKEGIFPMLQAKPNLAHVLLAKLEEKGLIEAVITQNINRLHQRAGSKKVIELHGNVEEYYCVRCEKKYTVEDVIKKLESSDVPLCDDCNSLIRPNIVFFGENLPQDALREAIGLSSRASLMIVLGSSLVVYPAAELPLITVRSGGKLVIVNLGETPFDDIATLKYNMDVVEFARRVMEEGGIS
Procedure: as §1, §2, §3

Sir2Tm wild type [3] = molecular target: T1, Sir2Tm wild type; conditions: 0.1 mM ^14C-labelled base, 2 mM NAD^+, 500 μM acetylated p53 peptide, 37° C., 3 hours
Procedure: (§4) After incubation at 37° C. for 3 hours, 8 μL of each reaction was spotted on a Polygram SIL-G TLC plate (Machevey-Nagel, 20×20). The plate was developed in a pre equilibrated chamber with 80:20 ethanol:2.5 M ammonium acetate. After chromatography, the plate was air dried and exposed to a phosphorimaging screen overnight.

Sir2Tm-D101N mutant [4] = molecular target: T2, Sir2Tm-D101N mutant; conditions: Sir2Tm-D101N mutant 2.5 mg/mL; 0.1 mM ^14C-labelled base, 2 mM NAD^+, 500 μM acetylated p53 peptide, 37° C., 3 hours
Procedure: as §4

T1 sequence (Q9WYW0 whole entry, the tested form may be a part): as the sequence (Q9WYW0 whole entry D101N) above, with N101D counted along it

Row | SMILES | apparent kcat of cosubstrate-dependent deacetylation (Sir2Tm-D101N mutant [2]) | Km (Sir2Tm-D101N mutant [2]) [µM] | base exchange activity (formation of labelled dinucleotide) (Sir2Tm wild type [3]) | base exchange activity (formation of labelled dinucleotide) (Sir2Tm-D101N mutant [4]) | further results
1 | Nc1ncnc2c1ncn2[C@@H]1O[C@H](COP(=O)(O)OP(=O)(O)OC[C@H]2O[C@@H]([n+]3cccc(C(=O)O)c3)[C@H](O)[C@@H]2O)[C@@H](O)[C@H]1O [NAAD, nicotinic acid adenine dinucleotide] | (1.1±0.1)×10^−3 s^−1 | 617 ± 43 |  |  | deacetylation activity with the dinucleotide as cosubstrate (Sir2Tm wild type [1]; up to 2.56 mg/ml enzyme, incubation 4 hours): no detectable deacetylation activity; also recorded: undetectable
2 | NC(=O)c1ccc[n+]([C@@H]2O[C@H](COP(=O)([O-])OP(=O)(O)OC[C@H]3O[C@@H](n4cnc5c(N)ncnc54)[C@H](O)[C@@H]3O)[C@@H](O)[C@H]2O)c1 [NAD^+, nicotinamide adenine dinucleotide] | (1.8±0.1)×10^−3 s^−1 | 1170 ± 180 |  |  | kcat of cosubstrate-dependent deacetylation (Sir2Tm wild type [1]): 0.170 ± 0.006 s⁻¹; Km (Sir2Tm wild type [1]; 400 μM fluorolabeled peptide, read-out: KM for cosubstrate): 53 ± 11 µM; fold increase of KM, D101N mutant versus wild type (Sir2Tm-D101N mutant [2]; Sir2Tm-D101N versus wild type Sir2Tm): 22 fold
3 | NC(=O)c1cccnc1 [nicotinamide] |  |  | could catalyze formation of labeled NAD^+ | could catalyze formation of labeled NAD^+ | 
4 | O=C(O)c1cccnc1 [nicotinic acid] |  |  | cannot do; also recorded: no detectable formation of NAAD | able to synthesize ^14C-labelled NAAD | inhibition of wild type enzyme deacetylation activity (Sir2Tm wild type [1]; inhibitor added to concentrations of up to 100 mM): fail to inhibit; IC50 (Sir2Tm-D101N mutant [2]; IC50, inhibition of NAAD-dependent deacetylation activity, 2 mM NAAD): 6.2 ± 2 mM; IC50 (Sir2Tm-D101N mutant [2]; IC50, inhibition of NAD^+-dependent deacetylation activity, 2 mM NAD^+): 11.3 ± 3.3 mM
